According to a melting point compilation (Tetko et al.; mined from patent text by program, amines drawn as free bases though some values may be those of a salt):

First: COCCCn1c(CO)c(Br)c2c3c(c(-c4ccccc4Cl)cc21)C(=O)NC3=O
Second: COC(=O)Cc1cc2c(s1)-n1c(C)nnc1C(C)N=C2c1ccccc1Cl (configuration not stated)
The melting point of the first is higher: 178 to 180 °C for the first, 105 to 106 °C for the second.

First: COC(=O)c1sc(-c2ccccc2)c(Br)c1O
Second: CC(C)n1c(=O)c(C(=O)O)cc2ccccc21
The melting point of the first is lower: 85 to 87 °C for the first, 168 to 169 °C for the second.

First: CCOC(=O)c1cc(=O)cc(-c2ccccc2OC)o1
Second: CCOC(=O)c1cc2c(nc(C)n2C)c(O)c1CCC(O)c1ccccc1 (configuration not stated)
The melting point of the first is lower: 78 to 81 °C for the first, 193 to 195 °C for the second.

First: CN1CC(Oc2ccc(Nc3cc(-c4cccc(-n5ncc6cc(C(C)(C)C)cc(F)c6c5=O)c4CO)cn(C)c3=O)nc2)C1
Second: Cn1c(CNC(=O)Nc2ccc3c(c2)CCC3NC(=O)OC(C)(C)C)c(-c2ccccc2)c2cc(Cl)ccc2c1=O (configuration not stated)
The melting point of the first is higher: greater than 300 °C for the first, 225 to 227 °C for the second.

First: C=CCN1CCc2cc(OC)c(OC)c3c2C1Cc1cc(OC)c(OC)cc1-3 (single isomer, unassigned; (+))
Second: COc1cc2c(cc1OCc1ccccc1)CCN(Cc1cc(F)cc(F)c1)C2
The melting point of the first is higher: 139 to 143 °C for the first, 116 to 117 °C for the second.

Compared with `COc1cc(CN(C)Cc2ccccc2)ccc1NC(=O)Nc1cnc(C)cn1`, `COc1ccc(C(O)c2cccc(OCc3ccccc3)c2)cc1` (configuration not stated) is lower in melting point: 142 to 143 °C for the first, 50 to 60 °C for the second.

Compared with `Nc1ncc(CCCCc2ccc(Cl)cc2)c(N)n1`, `Nc1ncc(CCN2CCC(C(=O)c3ccc(F)cc3)CC2)c(O)n1` is higher in melting point: 159 to 162 °C for the first, 256 °C for the second.

First: NC(=O)CN1C(=O)[C@@H](NC(=O)c2cc3ccccc3[nH]2)[C@H](c2ccccc2)Sc2ccccc21 (relative stereo)
Second: O=c1c(Cc2ccccc2)c(O)c2cccc3c2n1C(c1ccccc1)C3 (configuration not stated)
The melting point of the first is lower: 222 to 225 °C for the first, 252 to 254 °C for the second.

Compared with `CCn1c(=O)c2[nH]c(/C=C/c3cc(C)ccc3C)nc2n(CC)c1=O`, `Cc1ccc2[nH]cc(C3=C(Br)C(=O)N(C)C3=O)c2c1` is lower in melting point: 282 °C for the first, 158 to 159 °C for the second.

Compared with `CCc1cc(SCCc2cccc3cn(-c4ccc(C(F)(F)F)cc4)nc23)ccc1OCC(=O)O`, `CC(O)(c1cccc(C(F)(F)F)c1)c1cc2cccc(-c3cccc(C(=O)NCCO)c3)c2s1` (configuration not stated) is higher in melting point: 115 to 117 °C for the first, 176 to 177 °C for the second.

Compared with `OCCc1c[nH]c2ccc(F)cc12`, `O=C(O)C1=Cc2cc(CO)ccc2OC1C(F)(F)F` (configuration not stated) is higher in melting point: 59 to 61 °C for the first, 178 to 181 °C for the second.

First: O=C(NCCCn1ccnc1)c1cccc(Cl)c1
Second: O=C(NCCCn1ccnc1)c1ccccc1NS(=O)(=O)c1ccc(I)cc1
The melting point of the first is lower: 125 to 127 °C for the first, 162 to 166 °C for the second.

First: CCOC(=O)CCCCOc1ccc([N+](=O)[O-])c(/C=C2\CC(=O)NC2=O)c1
Second: O=C(Oc1cc(F)ccc1[N+](=O)[O-])c1cc2cc(CCl)ccc2oc1=O
The melting point of the first is lower: 112 °C for the first, 205 to 208 °C for the second.

First: Cc1ncnc(C)c1N
Second: C[C@@H](O)Cn1cnc2c(N)ncnc21
The melting point of the first is lower: 98 to 100 °C for the first, 188 to 190 °C for the second.

First: Cc1cccc(NC(C(N)=O)c2ccccc2C)c1 (configuration not stated)
Second: CN(C)S(=O)(=O)Nc1cc(C(=O)c2ccccc2)ccc1N
The melting point of the first is lower: 90 to 91.5 °C for the first, 147 to 149 °C for the second.

First: FC(F)(F)c1ccc(-c2cc(Oc3ccc4cccnc4c3)ncn2)c(OCCN2CCOCC2)c1
Second: O=C(NCCN1CCCCC1)Nc1ccc(-c2cnc(COCc3cc4ccccc4o3)o2)cc1
The melting point of the first is higher: 132 to 133 °C for the first, 102 to 104 °C for the second.

First: CC(C)Sc1c(C(=O)O)oc(Br)c1Br
Second: CC(=O)OC(COc1ccc(C(=O)O)cc1)c1cc2cc(C(C)C)ccc2o1 (configuration not stated)
The melting point of the first is lower: 130 to 131 °C for the first, 135 to 137 °C for the second.

First: O=C(c1ccccc1)C1CCN(CCS(=O)c2ccc3[nH]c(=O)oc3c2)CC1 (configuration not stated)
Second: O=C(c1ccccc1)N1CCCC1c1cccc(O)c1 (configuration not stated)
The melting point of the first is lower: 68 to 72 °C for the first, 167 to 169 °C for the second.

Compared with `C=C(F)C[C@@H](C(=O)O)N(Cc1cccnc1)S(=O)(=O)c1ccc(OC)cc1`, `COc1ccc(/C(=C\C=C\C(=O)Oc2ccc([N+](=O)[O-])cc2)C2CC2)cc1` is lower in melting point: 172 °C for the first, 111 to 112 °C for the second.

First: CC(C)c1cccc(C(C)C)c1NS(=O)(=O)CC(=O)NC(c1ccccc1)c1ccccc1
Second: COC(=O)[C@@H](Cc1ccccc1)NC(=O)OCc1cc2cc(-c3ccccc3)ccc2o1
The melting point of the first is higher: 166 to 167 °C for the first, 85 to 86 °C for the second.

First: CN1C(=O)CCC(C(=O)O)C1c1ccc2c(c1)OCO2 (configuration not stated)
Second: CC(=O)N(C(C)=O)c1nc2n(n1)Cc1ccccc1-2
The melting point of the first is higher: 231 to 232 °C for the first, 174 to 176 °C for the second.

Compared with `O=C1c2c(Cl)cccc2-n2cnc(-c3nc(CN4Cc5ccccc5C4)no3)c2[C@@H]2CCN12`, `c1ccc(-c2ccc(-c3nc4n(n3)Cc3ccccc3-4)cc2)cc1` is higher in melting point: 170 to 175 °C for the first, 231 °C for the second.

First: OCc1ccc(-c2ncn(-c3ccc(OC(F)(F)F)cc3)n2)cc1
Second: Cc1oc(-c2ccccc2)nc1CCOc1ccc(CC(Nc2ccccc2C(=O)c2cccc(CO)c2)C(=O)O)cc1 (configuration not stated)
The melting point of the first is higher: 112 to 114 °C for the first, 87 to 90 °C for the second.

Compared with `COC(=O)C(C)(C)CCCOc1ccc(NC(=O)C(C)(C)CCCOc2cc(C)ccc2C)cc1`, `CCCCc1oc2ccc(NS(C)(=O)=O)cc2c1C(O)c1ccc(OCCCN(CCCC)CCCC)cc1` (configuration not stated) is higher in melting point: 62 to 63 °C for the first, 94 °C for the second.

Compared with `CC(C)(C)NC(=O)NC(C)(C)C#N`, `Cc1cc(C(C)(C)C)c(O)c(C)c1CC(=O)O` is lower in melting point: 204 to 205 °C for the first, 161 to 165 °C for the second.

Compared with `CC(=O)N(CC(=O)N1c2ccccc2N(Cc2ccccc2)C(=O)[C@H]2CCC[C@H]21)C(=O)CCc1ccccc1` (relative stereo), `O=C(Nc1cccc(Cl)c1)c1nc(-c2ccccc2)c2ccccc2c1O` is higher in melting point: 138 to 140 °C for the first, 195 to 197 °C for the second.

First: COCCc1nc2c(N)nc3ccccc3c2n1CCCCCS(=O)(=O)c1ccccc1
Second: Cn1c2cccc(C#N)c2c2nc3ccccc3nc21
The melting point of the first is lower: 172 to 175 °C for the first, 237 °C for the second.

First: O=C1C2=C(CCCC2)C(=O)N1c1c(F)cc(F)cc1F
Second: CC(C)OC(=O)c1cc(-n2c(=O)c3c(n(C)c2=O)CCC3)c(F)cc1Cl
The melting point of the first is lower: 91 to 92 °C for the first, 111 to 113 °C for the second.

Compared with `O=C1CNc2ncc(-c3cccnc3)cc2N1Cc1c(Cl)cccc1Cl`, `OCCc1ccc(Nc2ncc3c(n2)-c2ccccc2C(c2ccc(Cl)c(Cl)c2)C3)cc1` (configuration not stated) is lower in melting point: greater than 200 °C for the first, 94 to 96 °C for the second.

First: COC(=O)c1cccc([N+](=O)[O-])c1C(=O)O
Second: COc1cccc(CC(=O)O)c1OCCCc1cn(-c2ccc([N+](=O)[O-])cn2)nc1C(C)C
The melting point of the first is higher: 166 to 168 °C for the first, 161 to 162 °C for the second.

First: COc1cc(-c2c(-c3ccc(F)cc3)nc3ccc(N4CCN(C)CC4)nn23)ccn1
Second: CCC(CC)NC(=O)Nc1cc(-c2c(-c3ccc(F)c(C)c3)nc3cccnn23)ccn1
The melting point of the first is higher: 189 to 194 °C for the first, 187 to 188 °C for the second.

Compared with `COc1ccc(S(=O)(=O)N2C(=O)C(NC(C)=O)(c3ccccc3)c3cc(Cl)ccc32)c(OC)c1` (configuration not stated), `COc1ccc(-c2csc(Nc3ccc4ccccc4n3)n2)cc1OC` is higher in melting point: 253 °C for the first, 257 to 259 °C for the second.

Compared with `CCCCCSc1cc(C(=O)O)cc(S(N)(=O)=O)c1Oc1ccccc1`, `CCC(C)(O)CNc1c(N)c(Cl)nc2ccccc12` (configuration not stated) is lower in melting point: 180 to 182 °C for the first, 99 to 101 °C for the second.

First: CC1=C(c2ccc(F)c(F)c2)C(=NO)CC1
Second: CCOc1nc(-c2ccc(F)cc2C)c2c(n1)N(c1c(F)cccc1F)C(=O)NC2
The melting point of the first is lower: 155 to 156 °C for the first, 191 to 194 °C for the second.

First: CN(C)c1c(SC(F)(F)F)c(C#N)nn1-c1c(Cl)cc(C(F)(F)F)cc1Cl
Second: N#Cc1nn(-c2c(Cl)cc(C(F)(F)F)cc2Cl)c(N)c1C#N
The melting point of the first is lower: 110 to 111 °C for the first, 221 to 222 °C for the second.

Compared with `O=C1C(Cc2ncccc2Br)c2ccccc2C12COc1cc3c(cc12)OCCO3` (configuration not stated), `NNC(=O)CC1(O)c2ccccc2C=Cc2ccccc21` is lower in melting point: 217 to 218 °C for the first, 192 to 194 °C for the second.

First: Cc1c(Br)cc(C(C)(CO)c2ccc(C(C)C)cc2)c(O)c1C (configuration not stated)
Second: CC(C)Cn1c(CNC(=O)OC(C)(C)C)c(-c2ccc(Cl)cc2)c2cc(/C=C/C(=O)O)ccc2c1=O
The melting point of the first is lower: 110 to 111 °C for the first, 147 to 149 °C for the second.

Compared with `Cc1ccc(-c2c(Cl)nc(-c3cccs3)nc2NS(=O)(=O)c2ccc(C(C)(C)C)cc2)cc1`, `Cc1cccc([C@@H]2C[C@H]3C=C(c4c[nH]c(-c5ccc(F)cc5)c4-c4ccncc4)CCN3C2)c1` is lower in melting point: greater than 300 °C for the first, 204 to 206 °C for the second.

First: O=C(O)c1cn(C2CC2)c2c(CO)c(N3CCNCC3)c(F)cc2c1=O
Second: O=C1CCn2c3c(c4cccc1c42)CCN(C(=O)c1ccccc1)CC3
The melting point of the first is lower: 149 to 152 °C for the first, 178 to 181 °C for the second.

First: O=C1NC(=O)C(CC#Cc2ccc(Cl)cc2)(S(=O)(=O)c2cc(Cl)c(Cl)s2)S1 (configuration not stated)
Second: COc1ccc(CNc2nc(CCC(=O)O)nc3sc4ccccc4c23)cc1Cl
The melting point of the first is lower: 160 °C for the first, 218 °C for the second.

Compared with `CC(C)(CO)NCC(O)Cn1ccnc1[N+](=O)[O-]` (configuration not stated), `Cc1nnc(C=Cc2ccccc2OCC(O)CNC2CC2)s1` (configuration not stated) is higher in melting point: 114 to 116 °C for the first, 144 to 145 °C for the second.

First: NCCCNc1ncc2ncnc(Nc3ccc(F)c(Cl)c3)c2n1
Second: CN(C)C(=O)c1ccc(Nc2nc(OCC3CCCCC3)c3nc[nH]c3n2)cc1
The melting point of the first is lower: 177 to 179 °C for the first, 184 to 186 °C for the second.

Compared with `CCOC(=O)Oc1ccc(/C=C(\C)c2ccc3c(c2)SC(C)(C)S3)cc1`, `COc1ccc2c(c1)C(C)(CC#N)C(=O)N2C` (configuration not stated) is lower in melting point: 93 to 94 °C for the first, 75.5 to 76 °C for the second.

First: Nc1ccc(C2=NNC(c3ccccn3)=NN2)nc1
Second: COc1cc2nc(-c3ccccn3)nc(N)c2cc1OC
The melting point of the first is lower: 158 to 160 °C for the first, 248 to 251 °C for the second.

First: COC(=O)NNC(=S)CC1CCCCO1 (configuration not stated)
Second: COc1ccc(N2CCN(c3c(C)c(C)c4c(c3C)CC(C)(CN3CCCC3)O4)CC2)cc1 (configuration not stated)
The melting point of the first is lower: 110 °C for the first, 129 to 132 °C for the second.

Compared with `O=[N+]([O-])C=C1SCCCN1S(=O)(=O)Cc1ccccc1`, `Cc1cc(=O)n(Cc2ccccc2)[nH]c1=O` is higher in melting point: 140 to 141 °C for the first, greater than 200 °C for the second.

Compared with `O=C(COc1ccc(OCc2ccccc2)cc1)NCCCn1ccnc1`, `ClCC1CCN(C(c2ccccc2)c2ccccc2)CC1` is lower in melting point: 112 to 113 °C for the first, 73 to 75 °C for the second.

First: C#CCn1ccn(C)c1=O
Second: NNS(=O)(=O)c1cccc2cccnc12
The melting point of the first is lower: 69 to 72 °C for the first, 135 to 137 °C for the second.

Work on `OC1CSC(Oc2cncc(-c3ccncc3Cl)c2)C(O)C1O` (configuration not stated) yielded a melting point of 208 °C.
